# Literature values, collected in patent US9193713B2, “Compounds as cannabinoid receptor ligands” (priority 2007, dated 2015).
# Key:
# rat = rat formalin model of persistent pain
# microglial = details: in vitro; effects blocked by SR144528
# rodent = details: neuropathic, incisional, chronic and acute inflammatory pain
# mice = details: model for post-menopausal osteoporosis
# [1] = tested on: apolipoprotein E knockout mice; details: low doses; effects inhibited by SR144528
# animal models = details: acute thermal, persistent, inflammatory and neuropathic pain models
compound,measurement,setting,value
CCCCCCC(C)(C)c1cc(OC)c([C@@H]2C=C(CO)[C@@H]3C[C@H]2C3(C)C)c(OC)c1 [HU-308],antinociceptive response,rat,elicits an antinociceptive response
CCCC(C)(C)c1ccc2c(c1)OC(C)(C)[C@@H]1CC=C(C)C[C@@H]21 [JWH-133],effect on β-amyloid-induced microglial activation and neurotoxicity,microglial,abrogated β-amyloid-induced microglial activation and neurotoxicity
COc1ccc2c(c1)c(CCN1CCOCC1)c(C)n2C(=O)c1cccc(Cl)c1Cl [GW405833],efficacy in pain models,rodent,efficacious
SR144528,effect on osteoclast activity,osteoclast,inhibit osteoclast activity
same,effect on ovariectomy-induced bone loss,mice,reverse ovariectomy-induced bone loss
(−)-Δ^9-Tetrahydrocannabinol [THC],effect on progression of atherosclerotic lesions,[1],slowed the progression of atherosclerotic lesions
CN1CCCCC1Cn1cc(C(=O)c2cc([N+](=O)[O-])ccc2I)c2ccccc21 (stereo not shown) [AM-1241],analgesic efficacy,animal models,robust analgesic efficacy
